Test results reported in US7605005B2, “Method of screening for agents that modulate Tysnd1 level or activity in a cell” (Riken, priority 2005, dated 2009).

How the values were obtained:
fatty acid oxidation = settings: reference 80; cited from earlier work
IDE = target: T1, IDE (Homo sapiens, UniProt P14735); settings: cited from earlier work
T1 sequence (P14735 1-1019): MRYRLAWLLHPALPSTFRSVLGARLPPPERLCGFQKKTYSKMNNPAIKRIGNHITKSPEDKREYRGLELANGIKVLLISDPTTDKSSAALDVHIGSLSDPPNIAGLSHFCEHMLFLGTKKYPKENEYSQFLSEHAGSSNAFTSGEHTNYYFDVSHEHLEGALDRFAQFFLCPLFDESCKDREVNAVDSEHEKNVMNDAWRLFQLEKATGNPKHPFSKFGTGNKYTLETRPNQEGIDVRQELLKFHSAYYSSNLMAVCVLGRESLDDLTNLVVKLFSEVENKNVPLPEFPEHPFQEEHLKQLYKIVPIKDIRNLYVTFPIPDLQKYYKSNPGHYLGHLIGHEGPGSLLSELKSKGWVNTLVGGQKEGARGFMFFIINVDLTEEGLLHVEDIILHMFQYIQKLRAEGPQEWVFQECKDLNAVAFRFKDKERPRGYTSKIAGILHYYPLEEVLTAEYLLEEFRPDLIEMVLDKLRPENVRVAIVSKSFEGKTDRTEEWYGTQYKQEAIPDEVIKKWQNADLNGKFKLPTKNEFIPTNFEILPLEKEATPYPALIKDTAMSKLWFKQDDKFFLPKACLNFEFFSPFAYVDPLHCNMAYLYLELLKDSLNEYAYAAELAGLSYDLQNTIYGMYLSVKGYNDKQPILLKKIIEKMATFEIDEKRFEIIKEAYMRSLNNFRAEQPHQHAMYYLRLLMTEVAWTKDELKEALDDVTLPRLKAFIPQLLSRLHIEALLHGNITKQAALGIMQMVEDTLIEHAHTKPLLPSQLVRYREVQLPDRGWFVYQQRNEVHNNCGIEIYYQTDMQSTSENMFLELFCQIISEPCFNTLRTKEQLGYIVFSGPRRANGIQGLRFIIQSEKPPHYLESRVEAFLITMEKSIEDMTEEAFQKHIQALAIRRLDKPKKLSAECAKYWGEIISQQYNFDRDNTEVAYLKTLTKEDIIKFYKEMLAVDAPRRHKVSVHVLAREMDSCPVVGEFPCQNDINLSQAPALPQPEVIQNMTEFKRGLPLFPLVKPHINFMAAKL

Tysnd1 = assay: Protease inhibition assay: processing of Acaa1 and Acox1 by recombinant Tysnd1; assay type: biochemical, mouse; settings: preincubated 30 min at 25° C., then 12 h at 37° C., substrates Acaa1 and Acox1

Compound	Fatty acid oxidation (fatty acid oxidation)	Inhibition of peroxisomal protease IDE (IDE)	Tysnd1 processing activity in the presence of protease inhibitor (Tysnd1; inhibitor 1 mM)	other results
COc1ccccc1OCC(O)CN1CCN(CC(=O)Nc2c(C)cccc2C)CC1 (stereo not drawn) [ranolazine]	inhibit			
CC(C)C[C@H](NC(=O)[C@H]1O[C@@H]1C(=O)O)C(=O)NCCCCN=C(N)N (relative stereo) [E64, trans-epoxysuccinyl-1-leucylamido-(4-guanidino) butane]		not		Tysnd1 processing activity in the presence of protease inhibitor (Tysnd1; inhibitor 20 μM): resistant
CC(=O)N[C@@H](CC(C)C)C(=O)N[C@@H](CC(C)C)C(=O)N[C@H](C=O)CCCNC(=N)N [leupeptin]		not		Tysnd1 processing activity in the presence of protease inhibitor (Tysnd1; inhibitor 10 μM): resistant
COc1ccc(CN2CCNCC2)c(OC)c1OC [trimetazidine]	inhibit			
CCN1C(=O)C=CC1=O [NEM, N-ethylmaleimide]		inhibited	completely abolished	
c1cnc2c(c1)ccc1cccnc12 [1,10-phenanthroline]			Partial inhibition	
